The subject of this assay is NB-4. The experiment in a line: Induction of mitochondrial membrane potential loss in human NB4 cells by JC1 staining based flow cytometry (reference value: 27.7%). Type of assay: functional.

In turn, `N#CC(C#N)=NNc1cccc(Cl)c1` [CARBONYL CYANIDE M-CHLOROPHENYLHYDRAZONE] had an Activity of 93%.
